Molecular target: BCL-2 recombinant protein (Homo sapiens, UniProt P10415)
Experiment: Cell free Bcl-2:Bak affinity assay (Bcl-2 Bak), HTRF competition of FAM-Bak peptide
Type: binding
Details: 1 μM compound, 4 nM BCL-2 recombinant protein, 100 nM FAM-Bak, read-out: potency (% inhibition at 1 μM)
Outline: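 Compounds in 10-point 3-fold dilution preincubated 10 min at RT with 4 nM GST-BCL-2 (20 mM K phosphate pH 7.5, 50 mM NaCl, 1 mM EDTA, 0.005% Triton X-100), then 100 nM FAM-Bak 10 min, anti-GST-Tb added, 60 min RT dark. HTRF read; % inhibition vs DMSO and positive control, IC50 from curve fit.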

Sequence of BCL-2 recombinant protein (P10415 whole entry): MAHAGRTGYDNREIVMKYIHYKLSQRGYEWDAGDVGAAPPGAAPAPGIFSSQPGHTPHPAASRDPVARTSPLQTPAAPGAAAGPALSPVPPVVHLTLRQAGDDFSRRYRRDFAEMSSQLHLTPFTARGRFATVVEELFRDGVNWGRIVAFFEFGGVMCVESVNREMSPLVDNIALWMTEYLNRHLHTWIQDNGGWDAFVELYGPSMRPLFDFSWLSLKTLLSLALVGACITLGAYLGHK

| inhibition at 1 µM [%] | SMILES |
| --- | --- |
| 50 to 90 | CC1(C)CCC(CN2CCN(c3ccc(S(=O)(=O)NC(=O)c4ccc(F)c(-c5cn[nH]c5)n4)cc3)CC2)=C(c2ccc(Cl)cc2)C1 [Example 59, N-[4-[4-[[2-(4-Chlorophenyl)-4,4-dimethylcyclohexen-1-yl]methyl]piperazin-1-yl]phenyl]sulfonyl-5-fluoro-6-(1H-pyrazol-4-yl)pyridine-2-carboxamide] |
| 50 to 90 | Cn1ncc2ccc(-c3nc(C(=O)NS(=O)(=O)c4ccc(N5CCN(CC6=C(c7ccc(Cl)cc7)CC(C)(C)CC6)CC5)cc4)ccc3F)cc21 [Example 60, N-[4-[4-[[2-(4-Chlorophenyl)-4,4-dimethylcyclohexen-1-yl]methyl]piperazin-1-yl]phenyl]sulfonyl-5-fluoro-6-(1-methyl-1H-indazol-6-yl)pyridine-2-carboxamide] |
| < 50 | CC1(C)CCC(CN2CCN(c3ccc(S(=O)(=O)NC(=O)c4ccc(F)c(-c5ccncc5)n4)cc3)CC2)=C(c2ccc(Cl)cc2)C1 [Example 61, N-[4-[4-[[2-(4-chlorophenyl)-4,4-dimethyl-cyclohexen-1-yl]methyl]piperazin-1-yl]phenyl]sulfonyl-5-fluoro-6-(4-pyridyl)pyridine-2-carboxamide] |

Same assay, conditions: 10-concentration IC50 mode, 4 nM BCL-2 recombinant protein, 100 nM FAM-Bak, read-out: potency (IC50)

| SMILES | IC50 [µM] |
| --- | --- |
| COc1cc(-c2nc(C(=O)NS(=O)(=O)c3ccc(N4CCN(CC5=C(c6ccc(Cl)cc6)CC(C)(C)CC5)CC4)cc3Oc3cnc4[nH]ccc4c3)ccc2F)ccn1 [Example 62, N-[4-[4-[[2-(4-Chlorophenyl)-4,4-dimethylcyclohexen-1-yl]methyl]piperazin-1-yl]-2-(1H-pyrrolo[2,3-b]pyridin-5-yloxy)phenyl]sulfonyl-5-fluoro-6-(2-methoxypyridin-4-yl)pyridine-2-carboxamide] | 0.1 to 1 |
| Cn1cc(-c2nc(C(=O)NS(=O)(=O)c3ccc(N4CCN(CC5=C(c6ccc(Cl)cc6)CC(C)(C)CC5)CC4)cc3Oc3cnc4[nH]ccc4c3)ccc2F)cn1 [Example 63, N-[4-[4-[[2-(4-Chlorophenyl)-4,4-dimethylcyclohexen-1-yl]methyl]piperazin-1-yl]-2-(1H-pyrrolo[2,3-b]pyridin-5-yloxy)phenyl]sulfonyl-5-fluoro-6-(1-methylpyrazol-4-yl)pyridine-2-carboxamide] | 0.01 to 0.1 |
| Cc1cc([N+](=O)[O-])cc(C(=O)NS(=O)(=O)c2ccc(C3=CCN(CC4=C(c5ccc(Cl)cc5)CC(C)(C)CC4)CC3)cc2Oc2cnc3[nH]ccc3c2)n1 [Example 64, N-[4-[1-[[2-(4-Chlorophenyl)-4,4-dimethylcyclohexen-1-yl]methyl]-3,6-dihydro-2H-pyridin-4-yl]-2-(1H-pyrrolo[2,3-b]pyridin-5-yloxy)phenyl]sulfonyl-6-methyl-4-nitropyridine-2-carboxamide] | > 1 |

The remaining lines, values ahead:

| IC50 [µM] | SMILES |
| --- | --- |
| < 0.01 | Cc1cc([N+](=O)[O-])cc(C(=O)NS(=O)(=O)c2ccc(C3=CCN(CC4=C(c5ccc(Cl)cc5)CC(C)(C)CC4)CC3)cc2F)n1 [Example 65, N-[4-[1-[[2-(4-Chlorophenyl)-4,4-dimethylcyclohexen-1-yl]methyl]-3,6-dihydro-2H-pyridin-4-yl]-2-fluorophenyl]sulfonyl-6-methyl-4-nitropyridine-2-carboxamide] |
| 0.01 to 0.1 | Cc1cc([N+](=O)[O-])cc(C(=O)NS(=O)(=O)c2ccc(N3CCN(CC4=C(c5ccc(Cl)cc5)CC(C)(C)CC4)CC3)cc2Oc2cnc3[nH]ccc3c2)n1 [Example 66, N-[4-[4-[[2-(4-Chlorophenyl)-4,4-dimethylcyclohexen-1-yl]methyl]piperazin-1-yl]-2-(1H-pyrrolo[2,3-b]pyridin-5-yloxy)phenyl]sulfonyl-6-methyl-4-nitropyridine-2-carboxamide] |
| 0.01 to 0.1 | CC1(C)CCC(CN2CCN(c3ccc(S(=O)(=O)NC(=O)c4ccc(F)c(Br)n4)c(Oc4cnc5[nH]ccc5c4)c3)CC2)=C(c2ccc(Cl)cc2)C1 [Example 67, N-[4-[4-[[2-(4-chlorophenyl)-4,4-dimethylcyclohexen-1-yl]methyl]piperazin-1-yl]-2-(1H-pyrrolo[2,3-b]pyridin-5-yloxy)phenyl]sulfonyl-6-bromo-5-fluoropyridine-2-carboxamide] |

— patent US11622970B2, “BCL-2 inhibitors and their use as pharmaceuticals” (PRELUDE THERAPEUTICS INCORPORATED, priority 2020, dated 2023)
